According to article PMC10112232, “Comparison of Toxicities among Different Bumped Kinase Inhibitor Analogs for Treatment of Cryptosporidiosis” (Antimicrobial Agents and Chemotherapy, 2023):
Read-outs that look alike come from different tables or passages of the source.

Key:
[1] = 14-day multidose rat toxicity study; format: in vivo; conditions: rats
Description: (§1) A control group of male and female rats were administered vehicle only for controls. […] Observations of feeding and general health were made twice daily. Clinical assessments were made at 1 h after each treatment. Blood was collected for hematology and blood chemistry before the first dose and prior to euthanasia. Necropsy and histology of organs (Liver, heart, lung, kidney, spleen, thymus, brain, spinal cord, nerves of the front and back legs, including muscle, bone marrow femur, stomach, small and large intestine, including lymph nodes, and femur and sternum, including epiphyseal plates, distal hind limb, and thyroid gland) were performed after euthanasia.

[2] = Multidose calf toxicity study; format: in vivo; conditions: calves
Description: Male and female calves were dosed orally with 7.5 or 15 mg/kg BID for 5 days. Adverse effects began on day 4, so the 7.5 mg/kg group received 9 doses total and the 15 mg/kg group received 7 doses total before the experiment was terminated.
as §1

[3] = Metabolite identification in hepatocytes; format: in vitro ADME, mice, rats, dogs, monkeys, and humans; conditions: all tested species, product 1770-O-glucuronide
Description: BKI-1841 was also evaluated in these assays (Table 1). All results from these assays were favorable, including falling within the solubility range that correlated with efficacy for the AC scaffold ([17]).

[4] = test system: Nluc expressing C. parvum; parameters: method as in PMID 30830766; conditions: cited from earlier work
[5] = target: T1, human tyrosine kinase SRC (HsSRC) (Homo sapiens, UniProt P12931); parameters: method as in PMID 30830766; conditions: read-out: HsSR IC50; cited from earlier work
T1 sequence (P12931 whole entry): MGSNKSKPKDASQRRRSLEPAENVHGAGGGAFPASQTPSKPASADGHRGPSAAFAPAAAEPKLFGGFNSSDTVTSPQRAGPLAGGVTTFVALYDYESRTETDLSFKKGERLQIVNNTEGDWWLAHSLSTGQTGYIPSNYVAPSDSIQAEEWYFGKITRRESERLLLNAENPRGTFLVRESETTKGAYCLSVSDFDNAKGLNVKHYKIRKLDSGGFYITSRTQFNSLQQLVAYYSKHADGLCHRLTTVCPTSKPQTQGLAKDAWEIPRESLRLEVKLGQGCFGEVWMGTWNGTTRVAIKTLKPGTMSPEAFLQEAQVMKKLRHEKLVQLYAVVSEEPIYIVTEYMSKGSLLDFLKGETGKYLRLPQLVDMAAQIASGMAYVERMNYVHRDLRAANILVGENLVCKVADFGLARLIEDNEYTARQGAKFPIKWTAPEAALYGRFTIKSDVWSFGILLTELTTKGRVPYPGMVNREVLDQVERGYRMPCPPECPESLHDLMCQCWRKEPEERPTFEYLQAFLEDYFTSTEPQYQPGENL

[6] = test system: CRL-8155 cells; parameters: method as in PMID 30830766; conditions: cited from earlier work
[7] = test system: Nluc expressing C. parvum; parameters: method as in PMID 30830766; conditions: IFN-γ KO mice, twice daily (BID) for 5 days; cited from earlier work
[8] = cited from earlier work; for HR / MAP / dP/dt@50: rat
[9] = target: T2, C. parvum calcium dependent protein kinase 1 (CpCDPK1) (Cryptosporidium parvum, UniProt A3FQ16); assay: In vitro inhibition of CpCDPK1; format: biochemical
T2 sequence (A3FQ16 1-538): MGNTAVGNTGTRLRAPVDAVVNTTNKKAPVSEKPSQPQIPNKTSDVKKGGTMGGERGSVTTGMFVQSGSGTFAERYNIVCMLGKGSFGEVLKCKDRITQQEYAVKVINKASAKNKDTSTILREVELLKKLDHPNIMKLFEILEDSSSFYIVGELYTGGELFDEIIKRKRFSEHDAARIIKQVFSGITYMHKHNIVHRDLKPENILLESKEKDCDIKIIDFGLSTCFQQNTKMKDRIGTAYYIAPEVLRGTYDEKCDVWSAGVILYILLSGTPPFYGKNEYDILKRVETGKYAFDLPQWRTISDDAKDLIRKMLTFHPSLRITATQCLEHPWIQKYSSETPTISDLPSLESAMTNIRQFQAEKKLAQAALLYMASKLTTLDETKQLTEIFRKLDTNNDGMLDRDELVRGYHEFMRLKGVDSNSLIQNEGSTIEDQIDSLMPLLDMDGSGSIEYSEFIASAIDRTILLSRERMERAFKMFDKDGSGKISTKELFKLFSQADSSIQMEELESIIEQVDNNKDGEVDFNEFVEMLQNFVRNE
From the text: (§2) Methods for synthesis of BKIs ([17], [23]), efficacy against Nluc expressing C. parvum in infected adult IFN-γ KO mice ([6], [9]), in vivo mouse GI tract tissue exposure by LC/MS-MS analysis ([18], [28]), PK analysis of mouse plasma and brain tissue BKI concentrations by LC/MS-MS analysis ([29]), in vivo rat and dog cardiotoxicity screen ([30]), efficacy against IOWA-II strain C. parvum in infected neonatal calves ([13]), efficacy against C. hominis in infected piglets ([12]), in vitro inhibition of C. parvum CDPK1 (CpCDPK1) and human tyrosine kinase SRC (HsSRC) activity ([31]), in vitro inhibition of hERG ([32]), Nluc expressing C. parvum in vitro growth inhibition in infected HCT-8 cells ([6]), in vitro cytotoxicity in CRL-8155 and HepG2 cells ([29]), and mouse locomotor activity box ([33], [34]) have all been previously described. Analytes were measured by LC/MS-MS on an Acquity ultra performance liquid chromatography (UPLC) system in tandem with a Xevo TQ-S mass spectrometer (Waters, Milford, MA, USA).

[10] = test system: Nluc expressing C. parvum; assay: Nluc expressing C. parvum in vitro growth inhibition in infected HCT-8 cells; format: cell-based; conditions: Cryptosporidium parvum
From the text: as §2

[11] = target: T1, human tyrosine kinase SRC (HsSRC); assay: In vitro inhibition of HsSRC; format: biochemical; conditions: read-out: HsSR IC50
From the text: as §2

[12] = In vitro cytotoxicity in HepG2 cells; format: cell-based; conditions: human
From the text: as §2

[13] = In vitro cytotoxicity in CRL-8155 cells; format: cell-based; conditions: human
From the text: as §2

[14] = target: hERG (Homo sapiens, UniProt Q12809); assay: In vitro inhibition of hERG; format: biochemical
hERG, sequence (Q12809 whole entry): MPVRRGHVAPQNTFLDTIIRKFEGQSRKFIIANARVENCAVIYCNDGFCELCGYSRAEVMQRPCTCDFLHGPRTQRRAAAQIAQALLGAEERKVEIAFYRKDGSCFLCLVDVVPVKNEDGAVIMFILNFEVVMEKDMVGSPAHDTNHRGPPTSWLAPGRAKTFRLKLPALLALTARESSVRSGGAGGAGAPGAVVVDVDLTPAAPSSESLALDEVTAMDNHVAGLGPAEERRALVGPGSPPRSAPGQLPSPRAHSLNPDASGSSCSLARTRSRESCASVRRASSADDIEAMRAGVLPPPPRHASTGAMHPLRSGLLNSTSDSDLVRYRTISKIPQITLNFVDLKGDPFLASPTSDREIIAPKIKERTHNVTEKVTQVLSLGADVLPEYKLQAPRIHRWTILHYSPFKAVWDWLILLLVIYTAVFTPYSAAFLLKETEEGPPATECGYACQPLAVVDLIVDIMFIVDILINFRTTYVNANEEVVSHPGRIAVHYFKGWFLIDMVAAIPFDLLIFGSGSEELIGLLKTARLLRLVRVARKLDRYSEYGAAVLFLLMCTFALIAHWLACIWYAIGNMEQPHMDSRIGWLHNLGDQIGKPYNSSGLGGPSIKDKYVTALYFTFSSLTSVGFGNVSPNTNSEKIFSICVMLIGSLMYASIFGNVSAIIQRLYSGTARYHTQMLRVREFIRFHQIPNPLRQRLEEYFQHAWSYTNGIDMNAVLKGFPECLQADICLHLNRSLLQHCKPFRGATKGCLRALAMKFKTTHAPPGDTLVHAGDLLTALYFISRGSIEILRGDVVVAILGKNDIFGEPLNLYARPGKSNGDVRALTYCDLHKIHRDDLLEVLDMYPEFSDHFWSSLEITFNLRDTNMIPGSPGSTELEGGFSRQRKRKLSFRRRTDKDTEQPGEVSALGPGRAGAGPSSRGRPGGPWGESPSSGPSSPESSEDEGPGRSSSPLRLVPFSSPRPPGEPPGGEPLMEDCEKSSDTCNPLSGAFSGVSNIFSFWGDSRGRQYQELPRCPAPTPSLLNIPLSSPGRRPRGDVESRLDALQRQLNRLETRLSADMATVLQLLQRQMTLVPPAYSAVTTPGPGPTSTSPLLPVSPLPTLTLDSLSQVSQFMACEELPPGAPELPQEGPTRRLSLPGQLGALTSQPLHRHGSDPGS
From the text: as §2

[15] = Aqueous solubility; format: physicochemical
From the text: TABLE 1 In vitro properties of bumped kinase inhibitors^a | column: Solubility at pH 2 (μM); Solubility at pH 6.5 (μM)

[16] = Cardiovascular testing in anesthetized rats; format: in vivo, rat; conditions: for HR / MAP / dP/dt@50: rat
From the text: as §2

[17] = anesthetized rats, 30-minute IV infusions of 3, 10, 30 mg/kg, significant >15%

CCOc1ccc2cc(-c3nn(C(C)(C)CCO)c(N)c3C(N)=O)ccc2c1 [BKI-1770]
plasma concentration ([1]; 15 mg/kg group): 2.4 µM
plasma concentration ([1]; 375 mg/kg group): 11.8 µM
toxicity findings ([1]; oral 15 mg/kg QD, 14 days): no signs of toxicity
toxicity findings ([1]; oral 75 mg/kg QD, 14 days): some signs of bone toxicity, including thickened epiphyseal plates and increased spongiosa
toxicity findings ([1]; oral 375 mg/kg QD): euthanized after 7 doses due to extreme signs of toxicity
bone findings ([2]; both 7.5 and 15 mg/kg BID groups): changes to the epiphyseal growth plates in the femur and sternum
locomotion findings ([2]; oral 15 mg/kg BID, 7 doses total): locomotion problems on days 2 and 3
main mechanism of metabolism [3]: glucuronylation
EC50 [4]: 0.5 µM
IC50 [5]: > 10 µM
CC50 [6]: > 80 µM
minimum efficacious dose [7]: 30 mg/kg
effects on MAP, HR, left ventricular contractility vs vehicle [8, 17]: No significant effects
HR ([8]; IV 3 mg/kg): 8%
MAP ([8]; IV 3 mg/kg): -7%
dP/dt@50 ([8]; IV 3 mg/kg): 0%
HR ([8]; IV 10 mg/kg): 8%
MAP ([8]; IV 10 mg/kg): 5%
dP/dt@50 ([8]; IV 10 mg/kg): 9%
HR ([8]; IV 30 mg/kg): 3%
MAP ([8]; IV 30 mg/kg): -7%
dP/dt@50 ([8]; IV 30 mg/kg): 8%
signs of cardiotoxicity ([8]; rats): no signs of cardiotoxicity

CCOc1ccc2cc(-c3nn(C4CCOCC4)c(N)c3C(N)=O)ccc2n1 [BKI-1841]
IC50 [9]: 0.003 µM
EC50 [10]: 0.7 µM
IC50 [11]: > 10 µM
CC50 [12]: > 80 µM
CC50 [13]: > 80 µM
IC50 [14]: > 30 µM
solubility ([15]; aqueous medium at pH 2, pH 2, simulated gastric fluid, read-out: Solubility at pH 2): > 100 µM
solubility ([15]; aqueous medium at pH 6.5, pH 6.5, aqueous buffer, read-out: Solubility at pH 6.5): > 100 µM
effects on MAP, HR, left ventricular contractility vs vehicle [16, 17]: No significant effects
HR ([16]; IV 3 mg/kg): 5%
MAP ([16]; IV 3 mg/kg): 1%
dP/dt@50 ([16]; IV 3 mg/kg): 3%
HR ([16]; IV 10 mg/kg): 3%
MAP ([16]; IV 10 mg/kg): 3%
dP/dt@50 ([16]; IV 10 mg/kg): 4%
HR ([16]; IV 30 mg/kg): 0%
MAP ([16]; IV 30 mg/kg): 2%
dP/dt@50 ([16]; IV 30 mg/kg): 11%
